Measurements from patent US11759462B2, “Spirocyclic compounds as tryptophan hydroxylase inhibitors” (priority 2013, dated 2023).

Biological target: T1, Recombinant human TPH1 (MBP tagged) (Homo sapiens, UniProt P17752)
T1 construct: cloning full length human TPH1 cDNA in to a bacterial pMAL-c5E expression vector; made in house; host or cells: E. coli BL21 (DE3)
T1 sequence (P17752 1-444): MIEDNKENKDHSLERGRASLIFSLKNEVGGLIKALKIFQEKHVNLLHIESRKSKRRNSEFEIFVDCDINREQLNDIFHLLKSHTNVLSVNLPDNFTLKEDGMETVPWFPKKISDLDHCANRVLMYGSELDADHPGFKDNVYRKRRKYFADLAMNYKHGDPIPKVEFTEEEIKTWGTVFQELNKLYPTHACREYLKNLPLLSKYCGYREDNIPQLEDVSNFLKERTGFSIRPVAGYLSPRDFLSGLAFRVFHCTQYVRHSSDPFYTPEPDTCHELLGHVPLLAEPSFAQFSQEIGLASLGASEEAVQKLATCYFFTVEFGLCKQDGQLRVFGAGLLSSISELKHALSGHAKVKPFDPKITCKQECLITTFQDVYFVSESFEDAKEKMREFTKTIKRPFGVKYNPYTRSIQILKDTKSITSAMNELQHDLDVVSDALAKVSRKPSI
Experiment: TPH1 in vitro inhibition assay (kinetic fluorescence)
Assay type: biochemical
Conditions: TPH1 Range (TPH1 inhibition IC50)
Outline: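 Final mix: 15 nM MBP-TPH1, 30 μM Trp, 36 μM 6-methyltetrahydropterin, 25 μM ferrous ammonium sulfate, 50 mM MES pH 7.1, 1% DMSO, room temperature.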

Row | SMILES | IC50
1 | Cn1ncc2cc(-c3ccc([C@@H](Oc4cc(N5CCC6(CC5)CN[C@H](C(=O)O)C6)nc(N)n4)C(F)(F)F)cc3)ccc21 [Example 55b, (S)-8-(2-amino-6-((R)-2,2,2-trifluoro-1-(4-(1-methyl-1H-indazol-5-yl)phenyl)ethoxy)pyrimidin-4-yl)-2,8-diazaspiro[4.5]decane-3-carboxylic acid] | < 50 nM
2 | Cc1nn(C)c2cc(-c3ccc([C@@H](Oc4cc(N5CCC6(CC5)CN[C@H](C(=O)O)C6)nc(N)n4)C(F)(F)F)cc3)ccc12 [Example 55ba, (S)-8-(2-amino-6-((R)-1-(4-(1,3-dimethyl-1H-indazol-6-yl)phenyl)-2,2,2-trifluoroethoxy)pyrimidin-4-yl)-2,8-diazaspiro[4.5]decane-3-carboxylic acid] | < 50 nM
3 | CN1CCc2cc(-c3ccc([C@@H](Oc4cc(N5CCC6(CC5)CN[C@H](C(=O)O)C6)nc(N)n4)C(F)(F)F)cc3)ccc2C1=O [Example 55bj, (S)-8-(2-amino-6-((R)-2,2,2-trifluoro-1-(4-(2-methyl-1-oxo-1,2,3,4-tetrahydroisoquinolin-6-yl)phenyl)ethoxy)pyrimidin-4-yl)-2,8-diazaspiro[4.5]decane-3-carboxylic acid] | < 50 nM

Same assay, conditions: read-out: TPH1 Range (TPH1 inhibition IC50)

Row | IC50 | SMILES
4 | 50 to 300 nM | Nc1nc(O[C@H](c2ccc(-c3ccc4ncncc4c3)cc2)C(F)(F)F)cc(N2CCC3(CC2)CN[C@H](C(=O)O)C3)n1 [Example 55bk, (S)-8-(2-amino-6-((R)-2,2,2-trifluoro-1-(4-(quinazolin-6-yl)phenyl)ethoxy)pyrimidin-4-yl)-2,8-diazaspiro[4.5]decane-3-carboxylic acid]
5 | 300 to 3000 nM | COc1cc(F)ccc1-c1ccc([C@@H](Oc2cc(N3CCC4(CC3)CN[C@H](C(=O)O)C4)nc(N)n2)C(F)(F)F)cc1 [Example 55bl, (S)-8-(2-amino-6-((R)-2,2,2-trifluoro-1-(4′-fluoro-2′-methoxy-[1,1′-biphenyl]-4-yl)ethoxy)pyrimidin-4-yl)-2,8-diazaspiro[4.5]decane-3-carboxylic acid]
6 | 300 to 3000 nM | COc1cccc(-c2ccc([C@@H](Oc3cc(N4CCC5(CC4)CN[C@H](C(=O)O)C5)nc(N)n3)C(F)(F)F)cc2)c1F [Example 55bm, (S)-8-(2-amino-6-((R)-2,2,2-trifluoro-1-(2′-fluoro-3′-methoxy-[1,1′-biphenyl]-4-yl)ethoxy)pyrimidin-4-yl)-2,8-diazaspiro[4.5]decane-3-carboxylic acid]
7 | 3000 to 10000 nM | COc1ccc(F)c(-c2ccc([C@@H](Oc3cc(N4CCC5(CC4)CN[C@H](C(=O)O)C5)nc(N)n3)C(F)(F)F)cc2)c1 [Example 55bn, (S)-8-(2-amino-6-((R)-2,2,2-trifluoro-1-(2′-fluoro-5′-methoxy-[1,1′-biphenyl]-4-yl)ethoxy)pyrimidin-4-yl)-2,8-diazaspiro[4.5]decane-3-carboxylic acid]
8 | 50 to 300 nM | Cc1ccc(-c2ccc([C@@H](Oc3cc(N4CCC5(CC4)CN[C@H](C(=O)O)C5)nc(N)n3)C(F)(F)F)cc2)cn1 [Example 55bo, (S)-8-(2-amino-6-((R)-2,2,2-trifluoro-1-(4-(6-methylpyridin-3-yl)phenyl)ethoxy)pyrimidin-4-yl)-2,8-diazaspiro[4.5]decane-3-carboxylic acid]
9 | 50 to 300 nM | Nc1nc(O[C@H](c2ccc(-c3ccc(C(=O)N4CCCC4)cc3)cc2)C(F)(F)F)cc(N2CCC3(CC2)CN[C@H](C(=O)O)C3)n1 [Example 55bp, (S)-8-(2-amino-6-((R)-2,2,2-trifluoro-1-(4′-(pyrrolidine-1-carbonyl)-[1,1′-biphenyl]-4-yl)ethoxy)pyrimidin-4-yl)-2,8-diazaspiro[4.5]decane-3-carboxylic acid]
10 | 300 to 3000 nM | Nc1nc(O[C@H](c2ccc(-c3cccc(C(=O)O)c3)cc2)C(F)(F)F)cc(N2CCC3(CC2)CN[C@H](C(=O)O)C3)n1 [Example 55bq, (S)-8-(2-amino-6-((R)-1-(3′-carboxy-[1,1′-biphenyl]-4-yl)-2,2,2-trifluoroethoxy)pyrimidin-4-yl)-2,8-diazaspiro[4.5]decane-3-carboxylic acid]
11 | 300 to 3000 nM | Nc1nc(O[C@H](c2ccc(-c3ccc(C(=O)O)cc3)cc2)C(F)(F)F)cc(N2CCC3(CC2)CN[C@H](C(=O)O)C3)n1 [Example 55br, (S)-8-(2-amino-6-((R)-1-(4′-carboxy-[1,1′-biphenyl]-4-yl)-2,2,2-trifluoroethoxy)pyrimidin-4-yl)-2,8-diazaspiro[4.5]decane-3-carboxylic acid]
12 | 300 to 3000 nM | CCCc1ccc(-c2ccc([C@@H](Oc3cc(N4CCC5(CC4)CN[C@H](C(=O)O)C5)nc(N)n3)C(F)(F)F)cc2)cc1 [Example 55bs, (S)-8-(2-amino-6-((R)-2,2,2-trifluoro-1-(4′-propyl-[1,1′-biphenyl]-4-yl)ethoxy)pyrimidin-4-yl)-2,8-diazaspiro[4.5]decane-3-carboxylic acid]
13 | 300 to 3000 nM | Nc1nc(O[C@H](c2ccc(-c3cccc(CO)c3)cc2)C(F)(F)F)cc(N2CCC3(CC2)CN[C@H](C(=O)O)C3)n1 [Example 55bt, (S)-8-(2-amino-6-((R)-2,2,2-trifluoro-1-(3′-(hydroxymethyl)-[1,1′-biphenyl]-4-yl)ethoxy)pyrimidin-4-yl)-2,8-diazaspiro[4.5]decane-3-carboxylic acid]
14 | 300 to 3000 nM | Nc1nc(O[C@H](c2ccc(-c3ccccc3CO)cc2)C(F)(F)F)cc(N2CCC3(CC2)CN[C@H](C(=O)O)C3)n1 [Example 55bu, (S)-8-(2-amino-6-((R)-2,2,2-trifluoro-1-(2′-(hydroxymethyl)-[1,1′-biphenyl]-4-yl)ethoxy)pyrimidin-4-yl)-2,8-diazaspiro[4.5]decane-3-carboxylic acid]
15 | 300 to 3000 nM | CC(C)Oc1ccc(-c2ccc([C@@H](Oc3cc(N4CCC5(CC4)CN[C@H](C(=O)O)C5)nc(N)n3)C(F)(F)F)cc2)cc1 [Example 55bv, (S)-8-(2-amino-6-((R)-2,2,2-trifluoro-1-(4′-isopropoxy-[1,1′-biphenyl]-4-yl)ethoxy)pyrimidin-4-yl)-2,8-diazaspiro[4.5]decane-3-carboxylic acid]
16 | 50 to 300 nM | CN(C)C(=O)c1ccc(-c2ccc([C@@H](Oc3cc(N4CCC5(CC4)CN[C@H](C(=O)O)C5)nc(N)n3)C(F)(F)F)cc2)cc1 [Example 55bw, (S)-8-(2-amino-6-((R)-1-(4′-(dimethylcarbamoyl)-[1,1′-biphenyl]-4-yl)-2,2,2-trifluoroethoxy)pyrimidin-4-yl)-2,8-diazaspiro[4.5]decane-3-carboxylic acid]
17 | 300 to 3000 nM | Nc1nc(O[C@H](c2ccc(-c3cccc(C(=O)N4CCCCC4)c3)cc2)C(F)(F)F)cc(N2CCC3(CC2)CN[C@H](C(=O)O)C3)n1 [Example 55bx, (S)-8-(2-amino-6-((R)-2,2,2-trifluoro-1-(3′-(piperidine-1-carbonyl)-[1,1′-biphenyl]-4-yl)ethoxy)pyrimidin-4-yl)-2,8-diazaspiro[4.5]decane-3-carboxylic acid]

The remaining lines, values behind:

Row | SMILES | IC50
18 | Nc1nc(O[C@H](c2ccc(-c3ccncc3)cc2)C(F)(F)F)cc(N2CCC3(CC2)CN[C@H](C(=O)O)C3)n1 [Example 55ax, (S)-8-(2-amino-6-((R)-2,2,2-trifluoro-1-(4-(pyridin-4-yl)phenyl)ethoxy)pyrimidin-4-yl)-2,8-diazaspiro[4.5]decane-3-carboxylic acid] | 50 to 300 nM
19 | Nc1nc(O[C@H](c2ccc(-c3cncnc3)cc2)C(F)(F)F)cc(N2CCC3(CC2)CN[C@H](C(=O)O)C3)n1 [Example 55ay, (S)-8-(2-amino-6-((R)-2,2,2-trifluoro-1-(4-(pyrimidin-5-yl)phenyl)ethoxy)pyrimidin-4-yl)-2,8-diazaspiro[4.5]decane-3-carboxylic acid] | 300 to 3000 nM
20 | Cc1c2ccc(-c3ccc([C@@H](Oc4cc(N5CCC6(CC5)CN[C@H](C(=O)O)C6)nc(N)n4)C(F)(F)F)cc3)cc2nn1C [Example 55bb] | < 50 nM
21 | Nc1nc(O[C@H](c2ccc(-c3ccc4ccncc4c3)cc2)C(F)(F)F)cc(N2CCC3(CC2)CN[C@H](C(=O)O)C3)n1 [Example 55be, (S)-8-(2-amino-6-((R)-2,2,2-trifluoro-1-(4-(isoquinolin-7-yl)phenyl)ethoxy)pyrimidin-4-yl)-2,8-diazaspiro[4.5]decane-3-carboxylic acid] | < 50 nM
22 | CN(C)Cc1ccc(-c2ccc([C@@H](Oc3cc(N4CCC5(CC4)CN[C@H](C(=O)O)C5)nc(N)n3)C(F)(F)F)cc2)cc1 [Example 55bf, (S)-8-(2-amino-6-((R)-1-(4′-((dimethylamino)methyl)-[1,1′-biphenyl]-4-yl)-2,2,2-trifluoroethoxy)pyrimidin-4-yl)-2,8-diazaspiro[4.5]decane-3-carboxylic acid] | 50 to 300 nM
23 | Nc1nc(O[C@H](c2ccc(-c3ccc4cccnc4c3)cc2)C(F)(F)F)cc(N2CCC3(CC2)CN[C@H](C(=O)O)C3)n1 [Example 55bh, (S)-8-(2-amino-6-((R)-2,2,2-trifluoro-1-(4-(quinolin-7-yl)phenyl)ethoxy)pyrimidin-4-yl)-2,8-diazaspiro[4.5]decane-3-carboxylic acid] | 50 to 300 nM
24 | Nc1nc(O[C@H](c2ccc(-c3ccc4nccnc4c3)cc2)C(F)(F)F)cc(N2CCC3(CC2)CN[C@H](C(=O)O)C3)n1 [Example 55bi, (S)-8-(2-amino-6-((R)-2,2,2-trifluoro-1-(4-(quinoxalin-6-yl)phenyl)ethoxy)pyrimidin-4-yl)-2,8-diazaspiro[4.5]decane-3-carboxylic acid] | < 50 nM
